Measurements taken from PubChem BioAssay (NCI).
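Following 48 hours of exposure in 96-well plates, responses at five concentrations were used to interpolate endpoints linearly. At the GI50, growth is halved. TGI denotes the concentration required for complete inhibition of growth.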

What was measured:
Assay in all cases: NCI-60 cell line screen, 48 h
786-0 renal = tested on: 786-0 renal
A498 renal = tested on: A498 renal
A549 NSCLC = tested on: A549 NSCLC
ACHN renal = tested on: ACHN renal
BT-549 breast = tested on: BT-549 breast
CAKI-1 renal = tested on: CAKI-1 renal
CCRF-CEM leukemia = tested on: CCRF-CEM leukemia
COLO 205 colon = tested on: COLO 205 colon
DU-145 prostate = tested on: DU-145 prostate
EKVX NSCLC = tested on: EKVX NSCLC
HCC-2998 colon = tested on: HCC-2998 colon
HCT-116 colon = tested on: HCT-116 colon
HCT-15 colon = tested on: HCT-15 colon
HL-60(TB) leukemia = tested on: HL-60(TB) leukemia
HOP-62 NSCLC = tested on: HOP-62 NSCLC
HOP-92 NSCLC = tested on: HOP-92 NSCLC
HS 578T breast = tested on: HS 578T breast
HT29 colon = tested on: HT29 colon
IGROV1 ovarian = tested on: IGROV1 ovarian
K-562 leukemia = tested on: K-562 leukemia
KM12 colon = tested on: KM12 colon
LOX IMVI melanoma = tested on: LOX IMVI melanoma
M14 melanoma = tested on: M14 melanoma
MALME-3M melanoma = tested on: MALME-3M melanoma
MCF7 breast = tested on: MCF7 breast
MDA-MB-231 breast = tested on: MDA-MB-231 breast
MDA-MB-435 = tested on: MDA-MB-435
MOLT-4 leukemia = tested on: MOLT-4 leukemia
NCI-H226 lung = tested on: NCI-H226 lung
NCI-H23 lung = tested on: NCI-H23 lung
NCI-H460 lung = tested on: NCI-H460 lung
NCI-H522 lung = tested on: NCI-H522 lung
NCI/ADR-RES ovarian = tested on: NCI/ADR-RES ovarian
OVCAR-3 ovarian = tested on: OVCAR-3 ovarian
OVCAR-4 ovarian = tested on: OVCAR-4 ovarian
OVCAR-5 ovarian = tested on: OVCAR-5 ovarian
OVCAR-8 ovarian = tested on: OVCAR-8 ovarian
PC-3 prostate = tested on: PC-3 prostate
RPMI-8226 leukemia = tested on: RPMI-8226 leukemia
RXF 393 renal = tested on: RXF 393 renal
SF-268 CNS = tested on: SF-268 CNS
SF-295 CNS = tested on: SF-295 CNS
SF-539 CNS = tested on: SF-539 CNS
SK-MEL-2 melanoma = tested on: SK-MEL-2 melanoma
SK-MEL-28 melanoma = tested on: SK-MEL-28 melanoma
SK-MEL-5 melanoma = tested on: SK-MEL-5 melanoma
SK-OV-3 ovarian = tested on: SK-OV-3 ovarian
SN12C renal = tested on: SN12C renal
SNB-19 CNS = tested on: SNB-19 CNS
SNB-75 CNS = tested on: SNB-75 CNS
SR leukemia = tested on: SR leukemia
SW-620 colon = tested on: SW-620 colon
T-47D breast = tested on: T-47D breast
TK-10 renal = tested on: TK-10 renal
U251 CNS = tested on: U251 CNS
UACC-257 melanoma = tested on: UACC-257 melanoma
UACC-62 melanoma = tested on: UACC-62 melanoma
UO-31 renal = tested on: UO-31 renal

NCCOc1ncccc1/C=C1\c2ccccc2-c2ccc(F)cc21
GI50 (786-0 renal): 575 nM | TGI (786-0 renal): 1940 nM | GI50 (A498 renal): 1610 nM | TGI (A498 renal): 4770 nM | GI50 (A549 NSCLC): 311 nM | TGI (A549 NSCLC): 1920 nM | GI50 (ACHN renal): 349 nM | TGI (ACHN renal): 1370 nM | GI50 (BT-549 breast): 1640 nM | TGI (BT-549 breast): 4480 nM | GI50 (CAKI-1 renal): 461 nM | TGI (CAKI-1 renal): 2000 nM | GI50 (CCRF-CEM leukemia): 316 nM | TGI (CCRF-CEM leukemia): 2390 nM | GI50 (COLO 205 colon): 1050 nM | TGI (COLO 205 colon): 2310 nM | GI50 (DU-145 prostate): 467 nM | TGI (DU-145 prostate): 1890 nM | GI50 (EKVX NSCLC): 1350 nM | TGI (EKVX NSCLC): 3550 nM | GI50 (HCC-2998 colon): 1340 nM | TGI (HCC-2998 colon): 2750 nM | GI50 (HCT-116 colon): 703 nM | TGI (HCT-116 colon): 2120 nM | GI50 (HCT-15 colon): 781 nM | TGI (HCT-15 colon): 2320 nM | GI50 (HL-60(TB) leukemia): 340 nM | TGI (HL-60(TB) leukemia): 1300 nM | GI50 (HOP-62 NSCLC): 446 nM | TGI (HOP-62 NSCLC): 1870 nM | GI50 (HOP-92 NSCLC): 353 nM | TGI (HOP-92 NSCLC): 3190 nM | GI50 (HS 578T breast): 1740 nM | TGI (HS 578T breast): 5020 nM | GI50 (HT29 colon): 1190 nM | TGI (HT29 colon): 2800 nM | GI50 (IGROV1 ovarian): 1160 nM | TGI (IGROV1 ovarian): 2470 nM | GI50 (K-562 leukemia): 994 nM | TGI (K-562 leukemia): 3390 nM | GI50 (KM12 colon): 1460 nM | TGI (KM12 colon): 2980 nM | GI50 (LOX IMVI melanoma): 598 nM | TGI (LOX IMVI melanoma): 1980 nM | GI50 (M14 melanoma): 739 nM | TGI (M14 melanoma): 2260 nM | GI50 (MALME-3M melanoma): 1240 nM | TGI (MALME-3M melanoma): 2640 nM | GI50 (MCF7 breast): 379 nM | TGI (MCF7 breast): 1680 nM | GI50 (MDA-MB-231 breast): 1430 nM | TGI (MDA-MB-231 breast): 2940 nM | GI50 (MDA-MB-435): 1550 nM | TGI (MDA-MB-435): 2980 nM | GI50 (MOLT-4 leukemia): 282 nM | TGI (MOLT-4 leukemia): 1160 nM | GI50 (NCI-H226 lung): 1000 nM | TGI (NCI-H226 lung): 2530 nM | GI50 (NCI-H23 lung): 631 nM | TGI (NCI-H23 lung): 2510 nM | GI50 (NCI-H460 lung): 236 nM | TGI (NCI-H460 lung): 1370 nM | GI50 (NCI-H522 lung): 1130 nM | TGI (NCI-H522 lung): 2760 nM | GI50 (NCI/ADR-RES ovarian): 1240 nM | TGI (NCI/ADR-RES ovarian): 2710 nM | GI50 (OVCAR-3 ovarian): 1630 nM | TGI (OVCAR-3 ovarian): 3110 nM | GI50 (OVCAR-4 ovarian): 1520 nM | TGI (OVCAR-4 ovarian): 3470 nM | GI50 (OVCAR-5 ovarian): 1570 nM | TGI (OVCAR-5 ovarian): 3070 nM | GI50 (OVCAR-8 ovarian): 1080 nM | TGI (OVCAR-8 ovarian): 2750 nM | GI50 (PC-3 prostate): 1180 nM | TGI (PC-3 prostate): 2620 nM | GI50 (RPMI-8226 leukemia): 1470 nM | TGI (RPMI-8226 leukemia): 3510 nM | GI50 (RXF 393 renal): 1600 nM | TGI (RXF 393 renal): 3660 nM | GI50 (SF-268 CNS): 1080 nM | TGI (SF-268 CNS): 4100 nM | GI50 (SF-295 CNS): 462 nM | TGI (SF-295 CNS): 1810 nM | GI50 (SF-539 CNS): 1490 nM | TGI (SF-539 CNS): 2870 nM | GI50 (SK-MEL-2 melanoma): 1910 nM | TGI (SK-MEL-2 melanoma): 3760 nM | GI50 (SK-MEL-28 melanoma): 1620 nM | TGI (SK-MEL-28 melanoma): 3040 nM | GI50 (SK-MEL-5 melanoma): 1360 nM | TGI (SK-MEL-5 melanoma): 2680 nM | GI50 (SK-OV-3 ovarian): 1240 nM | TGI (SK-OV-3 ovarian): 2910 nM | GI50 (SN12C renal): 449 nM | TGI (SN12C renal): 1710 nM | GI50 (SNB-19 CNS): 570 nM | TGI (SNB-19 CNS): 2580 nM | GI50 (SNB-75 CNS): 1100 nM | TGI (SNB-75 CNS): 3260 nM | GI50 (SR leukemia): 116 nM | TGI (SR leukemia): 2940 nM | GI50 (SW-620 colon): 682 nM | TGI (SW-620 colon): 2170 nM | GI50 (T-47D breast): 687 nM | TGI (T-47D breast): 2740 nM | GI50 (TK-10 renal): 1370 nM | TGI (TK-10 renal): 2850 nM | GI50 (U251 CNS): 525 nM | TGI (U251 CNS): 1850 nM | GI50 (UACC-257 melanoma): 1660 nM | TGI (UACC-257 melanoma): 3340 nM | GI50 (UACC-62 melanoma): 1040 nM | TGI (UACC-62 melanoma): 2380 nM | GI50 (UO-31 renal): 1120 nM | TGI (UO-31 renal): 2340 nM
